Key:
ZIKV NS5 MTase = biological target: T1, ZIKV NS5 MTase (Zika virus, UniProt A0A024B7W1); experiment: ZIKV NS5 MTase radioactive filter-binding assay (2′-O-MTase activity); format: biochemical; conditions: at least two experiments, read-out: IC50 (half-maximal inhibitory enzymatic concentration)
T1 construct: KJ776791.2, aa 4–278; His6 (N); made in house; host or cells: Escherichia coli T7 Express Iq
Procedure: Selected compounds were evaluated in enzymatic inhibition assays against both ZIKV and DENV 2′-O-MTase activity (For details, see Figure S3 in Supplementary Materials). The screening of compounds at a concentration of 50 µM highlighted a higher inhibitory activity against ZIKV MTase. We thus focused our efforts on ZIKV and determined the IC50 values against ZIKV MTase.
Expression and purification of ZIKV NS5 MTase: The coding sequence of the ZIKV NS5 MTase domain (strain H/PF/2013, GenBank accession no. KJ776791.2, aa 4–278) was synthesized by Genscript and cloned into a pQE30 vector (Qiagen, Hilden, Germany) with an N-terminal His6 tag. The protein was expressed and purified following the procedures described in Coutard et al..
Briefly, after expression in Escherichia coli T7 Express Iq (New England BioLabs) in Terrific Broth at 17 °C overnight, bacterial pellets were resuspended in lysis buffer (50 mM Tris-HCl [pH 8], 300 mM NaCl, 5% glycerol, 0.1% Triton, 10 μg/mL DNase I, 2 tablets of EDTA-free antiprotease cocktail [Roche] and 0.25 mg/mL lysozyme). Following cell lysis and clarification, the protein was purified by affinity on immobilized metal affinity chromatography (IMAC, His prep column [GE Healthcare]), followed by size exclusion chromatography (Superdex S75 HR 16/20 column [GE Healthcare]). The NS5-MTase was concentrated and stored at −20 °C after adding glycerol to a final concentration of 40%.
Filter-binding assay: The transfer of tritiated methyl from ^[3H]SAM onto RNA substrate was monitored by a filter-binding assay (FBA), performed according to the method described previously. FBA was carried out in a reaction mixture [40 mM Tris-HCl (pH 8.0), 1 mM DTT, 2 μM SAM, and 0.1 μM 3H-SAM (Perkin Elmer, Shelton, CT, USA)] in the presence of 0.7 μM synthetic ^7mGpppAC4 and ZIKV NS5 MTase (500 nM). The enzyme was first mixed with an increasing concentration of inhibitors, previously suspended in dimethyl sulfoxide (DMSO), before the addition of RNA substrate and SAM, and then incubated at 30 °C. The final DMSO concentration in reactions was 5%. Reaction mixtures were stopped after 30 min incubation by their 10-fold dilution in ice-cold water. Samples were transferred to diethylaminoethyl (DEAE) filtermat (Perkin Elmer, Shelton, CT, USA) using a Filtermat Harvester (Packard Instruments, Meriden, CT, USA). The RNA-retaining mats were washed twice with 10 mM ammonium formate pH 8.0, twice with water, and once with ethanol before drying. They were soaked with scintillation fluid (Perkin Elmer, Shelton, CT, USA), and 3H-methyl transfer to the RNA substrates was determined using a Wallac MicroBeta TriLux Liquid Scintillation Counter (Perkin Elmer, Shelton, CT, USA). For IC50 measurements, values were normalized and fitted with Prism (GraphPad software version 10.1.1) using the following equation: Y = 100/(1 + ((X/IC50) ^ Hillslope)).

[1] = Cytotoxicity assay (MTT) on Vero E6 cells; format: cell-based; conditions: African green monkey; VERO E6 cells, MTT, 3 days; read-out: CC50 ± SD (half-maximal cytotoxic concentration)
Procedure: Compounds characterized by the best anti-enzymatic activity were tested against ZIKV in cellular assays. VERO E6 cells were infected with ZIKV at a multiplicity of infection (M.O.I.) of 0.1, and their activities were evaluated by a plaque reduction assay three days post-infection. Ribavirin was used as a reference compound. As reported in Table 2, compound 1, identified in the first screening, was unable to inhibit viral replication up to a 100 μM concentration. […] The cytotoxicity of the series was determined on the same cell line. […] Their selectivity indexes were calculated as the ratio between CC50 and IC50 values; the results highlight their promising safety profile.
Monolayers of 2.5 × 10^4 Vero E6 cells per well were grown in flat-bottom 96-well culture plates and allowed to adhere overnight. Then, when the cell layers were confluent, the medium was removed, the wells were washed twice with PBS, treated with 100 µL of DMEM with 10 µL DMSO alone (cell positive control) or with various concentrations of anti-NS5 inhibitory compounds under study (compound final concentrations of 100, 10, 1, 0.1, and 0.01 μM), and incubated for 3 days at 37 °C in a CO2. After treatment, an MTT (3-(4,5-dimethylthiazol-2-yl)-2,5-diphenyltetrazolium bromide) kit (Roche, Milan, Italy) was used according to the supplier’s instructions, and the absorbance of each well was determined using a microplate spectrophotometer at a wavelength of 570 nm. Cytotoxicity was calculated by dividing the average optical density of treated samples by the average of DMSO-treated samples (cell positive control).

[2] = Metabolic stability in human liver microsomes; format: in vitro ADME; conditions: 1 h, 37 °C, three experiments
Procedure: The metabolic stability was investigated by incubating selected compounds with human liver microsomes (HLMs) for 1 h at 37 °C. The percentage of non-metabolized compounds and metabolites was analyzed by HPLC-UV-MS. […] HPLC analysis confirmed the presence of the oxidated metabolites in small percentages.
For the ADME property determination, an Agilent 1260 Infinity HPLC-DAD interfaced with an Agilent MSD 6130 (Agilent Technologies, Palo Alto, CA, USA) was used. Chromatographic conditions were optimized using a Phenomenex Kinetex C18-100 Å column (150 × 4.6 mm) with 5 µm particle size and gradient elution with a binary solution (eluent A: H2O; eluent B: ACN; both eluents were acidified with formic acid 0.1% v/v) at room temperature. The LC analyses started with 5% of B (from t = 0 to t = 1 min), then B was increased to 95% (from t = 1 to t = 10 min) and then kept at 95% (from t = 10 to t = 19 min) and finally returned to initial conditions in 1.0 min. The flow rate was 0.6 mL/min and the injection volume was 10 µL.
The test was performed as previously reported with minor modifications. Each compound was dissolved in DMSO and phosphate buffer (0.025 M, pH 7.4), and human liver microsomes (0.2 mg/mL) and a NADPH-regenerating system in MgCl2 48 mM were added to a final volume of 500 µL. This solution was incubated for 1 h at 37 °C and then the reaction was stopped and quenched using 1 mL of ACN. The reaction mixtures were then centrifuged (4000 rpm for 10 min) and the supernatant was taken, dried under nitrogen flow, and then resuspended in 100 µL of methanol. The parent drug and metabolites were subsequently determined using the chromatographic conditions described above. The percentage of non-metabolized compounds was calculated by comparison with reference solutions. The determination of metabolic stability for each compound was performed in three independent experiments.

ZIKV = ZIKV inhibitory viral plaque reduction assay in Vero E6 cells; format: cell-based, Zika virus

T1 sequence (A0A024B7W1 2524-2798): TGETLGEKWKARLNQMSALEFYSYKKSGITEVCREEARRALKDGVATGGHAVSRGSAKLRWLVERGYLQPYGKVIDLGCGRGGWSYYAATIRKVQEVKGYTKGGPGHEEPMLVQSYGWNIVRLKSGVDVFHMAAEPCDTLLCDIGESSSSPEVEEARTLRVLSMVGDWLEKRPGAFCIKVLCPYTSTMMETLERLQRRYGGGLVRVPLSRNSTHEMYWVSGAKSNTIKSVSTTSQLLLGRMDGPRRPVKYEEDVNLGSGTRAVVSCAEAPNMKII

SMILES: CN1C(=O)c2ccc(NC(=O)c3cc4cccc(Cl)c4s3)cc2C1=O [Compound 17]
- IC50 (ZIKV NS5 MTase): 11.4 µM
- CC50 at 3 days [1]: > 100 µM
- HLM Stab.% ± SD (percentage of non-metabolized compound) [2]: 96.39 ± 0.11%
- SI (Selectivity Index, ratio between CC50 and IC50) (ZIKV; VERO E6 cells): >200
- IC50 (ZIKV; Zika virus, Vero C1008, read-out: IC50 ± SD (half-maximal inhibitory concentration, ZIKV plaque reduction)): 0.5 ± 0.1 µM

— publication PMC10888717, “Identification of Novel Non-Nucleoside Inhibitors of Zika Virus NS5 Protein Targeting MTase Activity” (International Journal of Molecular Sciences, 2024)
